# Experimental data taken from US20220332839A1, “USE OF PRG4 TO TREAT CANCER” (Lubris LLC, priority 2019, published 2022).
# Tests used:
# Assay type in all cases: cell-based, human
# HAS2 = HAS2 protein abundance in MDA-MB-231 cells (immunoblot); conditions: 100 pM TGFβ; 100 μg/mL rhPRG4 in the absence or presence of TGFβ
# Procedure: Cells were washed with PBS to remove all growth media. Appropriate volume of TNTE lysis buffer (50 mM Tris, 150 mM NaCl, 1 mM EDTA, 0.5% [v/v] Triton-X-100) containing protease and phosphatase inhibitors, was added to the cell monolayer and incubated at 4° C. under vigorous shaking for 20 minutes. Lysates were then collected in microcentrifuge tubes and centrifuged at 13,000 g for 10 minutes at 4° C. 5 μL of the lysate were subjected to protein concentration determination using Bradford-based protein assays (Bio-Rad Laboratories, Canada). Lysates were boiled for 3 minutes at 95° C. in dithiothreitol (DTT)-containing Laemmli sample buffer. For immunoprecipitation analyses, lysates were incubated with appropriate antibodies at 4° C. with gentle rocking for 3 h after which immunocomplexes were incubated with Protein G-conjugated agarose beads (UBPBio, USA) at 4° C. with gentle rocking for 3 h. Finally, the beads were washed with TNTE wash buffer (0.1% [v/v] Triton-X-100) and boiled for 5 minutes at 95° C. in dithiothreitol (DTT) containing Laemmli sample buffer. Immunoprecipitates and input lysates were then resolved by sodium dodecyl sulfate-polyacrylamide electrophoresis (SDS-PAGE) and transferred onto a nitrocellulose membrane (Bio-Rad Laboratories, Canada). […] Densitometric analyses were performed using Quantity One software (Bio-Rad Laboratories, Canada).
# [1] = tested on: MDA-MB-231 cell-derived organoids; assay: Laminin/actin fluorescence staining of 3D organoids; conditions: 8 day old organoids; absence or presence of TGFβ
# Procedure: For immunofluorescence analysis of 3D-organoids, 600 MDA-MB-231 cells were grown within 80 μL of 50% Matrigel on top of 80 μL of 33% Matrigel coat in each well of ultra-low attachment 8-well chamber slides (Millipore-Sigma, USA). After DIC imaging on Day 8, the live multicellular structures were fixed with 4% formaldehyde, followed by permeabilization using 0.5% ice-cold Triton X-100 solution and blocking using 10% bovine serum albumin (BSA) in phosphate-buffered saline (PBS). For immunofluorescence analysis of monolayer cell culture, cells were seeded onto wells of a Falcon 8-well chamber culture slides (Corning Incorporated, USA), followed by fixing and permeabilization as described for the 3D cultures, and blocking with 5% BSA and 5% calf serum in PBS. Laminin and CD44 in cells were visualized by subjecting the three-dimensional or monolayer cultures to indirect immunofluorescence using a rat anti-laminin antibody (Abcam, Canada) and rat anti-CD44 antibody (Thermo Fisher, Canada) as the primary antibody, respectively, and Alexa 647-conjugated anti-rat IgG (ThermoFisher, Canada) as the secondary antibody. Actin in cells was visualized by incubating the fixed cultures with tetramethylrhodamine isothiocyanate (TRITC)-conjugated phalloidin (Millipore-Sigma, Canada). The DNA binding dye bisbenzimide (Hoechst 33342; Invitrogen, Canada) was used to detect nuclei. […]
# CD44 = CD44 protein abundance in MDA-MB-231 cells (immunoblot, immunofluorescence); conditions: for protein abundance of CD44, immunoblotting: 100 pM TGFβ, 100 μg/mL rhPRG4 in the absence or presence of TGFβ; for CD44 immunostaining signal in organoids: 8 day-old organoids, absence or presence of TGFβ
# Procedure: For immunofluorescence analysis of 3D-organoids, 600 MDA-MB-231 cells were grown within 80 μL of 50% Matrigel on top of 80 μL of 33% Matrigel coat in each well of ultra-low attachment 8-well chamber slides (Millipore-Sigma, USA). After DIC imaging on Day 8, the live multicellular structures were fixed with 4% formaldehyde, followed by permeabilization using 0.5% ice-cold Triton X-100 solution and blocking using 10% bovine serum albumin (BSA) in phosphate-buffered saline (PBS). For immunofluorescence analysis of monolayer cell culture, cells were seeded onto wells of a Falcon 8-well chamber culture slides (Corning Incorporated, USA), followed by fixing and permeabilization as described for the 3D cultures, and blocking with 5% BSA and 5% calf serum in PBS. Laminin and CD44 in cells were visualized by subjecting the three-dimensional or monolayer cultures to indirect immunofluorescence using a rat anti-laminin antibody (Abcam, Canada) and rat anti-CD44 antibody (Thermo Fisher, Canada) as the primary antibody, respectively, and Alexa 647-conjugated anti-rat IgG (ThermoFisher, Canada) as the secondary antibody. Actin in cells was visualized by incubating the fixed cultures with tetramethylrhodamine isothiocyanate (TRITC)-conjugated phalloidin (Millipore-Sigma, Canada). The DNA binding dye bisbenzimide (Hoechst 33342; Invitrogen, Canada) was used to detect nuclei. For CD44 knockdown analysis, the vector or CD44 shRNA transfected cells were identified by GFP signal. Immunofluorescence images were captured using an epifluorescence microscope with a 40× objective lens (Olympus Bx WI Confocal Microscope, Canada). Exposure times for laminin, actin, nuclei and GFP-specific signals were kept constant in each experiment. For each condition, 3 colonies/fields per experiment were captured, which were chosen as representative of the stained cells within each slide per experiments. Each experiment was repeated two independent times.
# Cells were washed with PBS to remove all growth media. Appropriate volume of TNTE lysis buffer (50 mM Tris, 150 mM NaCl, 1 mM EDTA, 0.5% [v/v] Triton-X-100) containing protease and phosphatase inhibitors, was added to the cell monolayer and incubated at 4° C. under vigorous shaking for 20 minutes. Lysates were then collected in microcentrifuge tubes and centrifuged at 13,000 g for 10 minutes at 4° C. 5 μL of the lysate were subjected to protein concentration determination using Bradford-based protein assays (Bio-Rad Laboratories, Canada). Lysates were boiled for 3 minutes at 95° C. in dithiothreitol (DTT)-containing Laemmli sample buffer. […] Densitometric analyses were performed using Quantity One software (Bio-Rad Laboratories, Canada).
# [2] = tested on: MDA-MB-231 cell-derived organoids; assay: Three-dimensional Matrigel culture, proportion of spherical vs invasive organoids
# Procedure: For three-dimensional culture assays, 50 μl of ice-cooled 33% growth factor-reduced Matrigel (Corning Incorporated, USA) in complete growth medium, consisting of DMEM containing 10% FBS, penicillin, streptomycin and amphotericin B (Invitrogen, Canada), was added per well of a 96-well flat bottom, ultra-low attachment plate (BD Biosciences, Canada) followed by storing the plate for 1 hour in a 5% CO2 humidified incubator at 37° C. to allow formation of a 1 mm-thick Matrigel bed in the well. Next, approximately 400 isolated MDA-MB-231 cells, suspended in 50 μl ice-cooled 50% Matrigel in complete growth medium, were layered on top of the Matrigel bed per well of the 96-well plate and incubated inside 5% CO2 humidified incubator at 37° C. One hour post addition and 37° C. incubation of Matrigel-cells suspension, 50 μl of complete growth medium was added to cover the solidified Matrigel-cells mixture. The following day and, every third day, the three-dimensional cultures received 50 μl of fresh complete growth medium without or with specified reagents as listed in the figure descriptions. On Day 8 of culture, differential interference contrast (DIC) images were captured of 8 representative organoids from each well, using light microscopy at 30× objective (Olympus IX70, Canada). […] Number of smooth surfaced organoids without any protrusions, designated as “spherical” were counted out of eight representative images in each well and then percentage of spherical organoids in each condition were plotted in bar graphs. Each experiment was performed at least three independent times for statistical analyses.
# MDA-MB-231 cells = assay: In vitro scratch assay (migration); conditions: 36 h
# Procedure: 5×10^5 MDA-MB-231 cells were seeded in each well of a 12-well tissue culture plate and grown overnight to near confluency in complete growth medium and then overnight serum starved by incubating with 0.2% FBS-containing DMEM medium in a 5% CO2 humidified incubator at 37° C. incubator. […] Scratch closure in each well was followed by imaging the scratch and surrounding cells in each well at 3× objective of a DIC microscope (Olympus IX70) coupled to a digital camera at time 0 h and 36 h after initiating the scratch. Five images were captured along the vertical axis of the scratch for each experimental condition. The width of each scratch was measured at three different positions per image for a total of 15 measurements using ImageJ (National Institutes of Health, USA), and then averaged per experimental condition. The width average at 36 h was subtracted from the width average at 0 h and expressed relative to that at 0 h width for each experimental condition to obtain scratch closure, and expressed as percent scratch closure.
Substance,"protein abundance of HAS2, immunoblotting (HAS2)",basal lamina (laminin) status and actin organization [1],"protein abundance of CD44, immunoblotting (CD44)",CD44 immunostaining signal in organoids (CD44),effect of TGFβ on LMWHA-induced invasive growth ([2]; 100 pM TGFβ with LMWHA),"invasive growth of organoids, stimulus alone ([2]; 100 pM TGFβ, LMWHA 10, 100 or 400 μg/mL, 8-day)","scratch closure, TGFβ vs control well (MDA-MB-231 cells; 100 pM TGFβ)","TGFβ or LMWHA-induced invasive growth, vector control transfected cells ([2]; 100 pM TGFβ or 400 μg/mL LMWHA, 100 μg/mL rhPRG4)","TGFβ-induced invasive growth of organoids ([2]; 100 pM TGFβ, 8-day, rhPRG4 0.1, 10, 100 μg/mL, KI 10 μM, 4-MU 0.5 mM)","LMWHA-induced invasive growth of 4-MU-treated organoids ([2]; 0.5 mM 4-MU, 400 μg/mL LMWHA, 100 μg/mL rhPRG4)","LMWHA-induced invasive growth of organoids ([2]; LMWHA 10-400 μg/mL, 100 μg/mL rhPRG4, KI 10 μM)","TGFβ and LMWHA-induced invasive growth of organoids ([2]; LMWHA 100 or 400 μg/mL, 100 pM TGFβ, CD44 antibody 2.5 μg/mL, rhPRG4 100 μg/mL)","TGFβ-induced invasive growth, rhPRG4 applied to the Matrigel prior to culture ([2]; Matrigel mixed with 100 μg/mL rhPRG4, 100 pM TGFβ)","invasive growth promoted by overexpressed CD44/FLAG ([2]; absence or presence of TGFβ or LMWHA, 100 μg/mL rhPRG4)",scratch closure in the absence or presence of TGFβ (MDA-MB-231 cells; 100 μg/mL rhPRG4)
TGFβ: recombinant human mature transforming growth factor beta (R&D systems) [reference compound],increased the protein abundance of HAS2,disrupted basement membrane organization,promoted the protein abundance of CD44,enhanced the CD44-immnostaining signal,further enhanced the ability of LMWHA to induce invasive growth,promoted an invasive growth,increased the scratch closure process,,,,,,,,
rhPRG4: full-length recombinant human PRG4 (lubricin) glycoprotein produced by CHO-M cells; residues 25-1404 of SEQ ID NO:1,suppressed the protein abundance of HAS2,promoted cortical actin organization and solid laminin ring formation,reduced the protein abundance of CD44,reduced this signal,,,,significantly reversed,drastically repress TGFβ-induced invasiveness,suppressed LMWHA-induced invasive growth,suppressed the ability of LMWHA to promote the invasive growth,suppressed TGFβ and LMWHA-induced invasive growth,sufficient to suppress TGFβ-induced invasive growth,suppressed the ability of overexpressed CD44 to promote invasive growth,significantly delayed the scratch closure process
